Settings: Liquid

CCCCOC(C)=O [butyl ethanoate]
Settings	mass density [kg/m3]
338.15 K, 35000 kPa	870.1
343.15 K, 100 kPa	829.5
343.15 K, 1000 kPa	830.5
343.15 K, 2000 kPa	831.7
343.15 K, 3000 kPa	832.9
343.15 K, 3100 kPa	833
343.15 K, 5000 kPa	835.2
343.15 K, 10000 kPa	840.7
343.15 K, 15000 kPa	845.7
343.15 K, 20000 kPa	850.5
343.15 K, 25000 kPa	855.1
343.15 K, 30000 kPa	860.7
343.15 K, 35000 kPa	866.3
348.15 K, 100 kPa	824.4
348.15 K, 1000 kPa	825.4
348.15 K, 2000 kPa	826.7
348.15 K, 3000 kPa	827.9
348.15 K, 3100 kPa	828
348.15 K, 5000 kPa	830.5
348.15 K, 10000 kPa	836.1
348.15 K, 15000 kPa	841.3
348.15 K, 20000 kPa	846.2
348.15 K, 25000 kPa	850.9
348.15 K, 30000 kPa	856.6
348.15 K, 35000 kPa	862.4
353.15 K, 100 kPa	819.3
353.15 K, 1000 kPa	820.4
353.15 K, 2000 kPa	821.7
353.15 K, 3000 kPa	822.9
353.15 K, 3100 kPa	823
353.15 K, 5000 kPa	825.5
353.15 K, 10000 kPa	831.3
353.15 K, 15000 kPa	836.7
353.15 K, 20000 kPa	841.8
353.15 K, 25000 kPa	846.7
353.15 K, 30000 kPa	852.5
353.15 K, 35000 kPa	858.4
358.15 K, 100 kPa	811.6
358.15 K, 1000 kPa	813.2
358.15 K, 2000 kPa	813.9
358.15 K, 3100 kPa	815.3
358.15 K, 5000 kPa	817.7
358.15 K, 10000 kPa	823.6
358.15 K, 15000 kPa	829.1
358.15 K, 20000 kPa	835.5
363.15 K, 100 kPa	806.1
363.15 K, 1000 kPa	807.5
363.15 K, 2000 kPa	808.8
363.15 K, 3000 kPa	810.1
363.15 K, 3100 kPa	810.3
363.15 K, 5000 kPa	812.8
363.15 K, 10000 kPa	819.2
363.15 K, 15000 kPa	824.9
363.15 K, 20000 kPa	830.4
368.15 K, 100 kPa	800.3
368.15 K, 1000 kPa	802.1
368.15 K, 2000 kPa	803.6
368.15 K, 3000 kPa	804.8
368.15 K, 3100 kPa	805
368.15 K, 5000 kPa	807.7
368.15 K, 10000 kPa	814.3
368.15 K, 15000 kPa	820.3
368.15 K, 20000 kPa	825.9
373.15 K, 100 kPa	795.8
373.15 K, 1000 kPa	797.2
373.15 K, 2000 kPa	798.7
373.15 K, 3000 kPa	800.2
373.15 K, 3100 kPa	800.4
373.15 K, 5000 kPa	803.1
373.15 K, 10000 kPa	809.9
373.15 K, 15000 kPa	815.9
373.15 K, 20000 kPa	821.3
378.15 K, 100 kPa	790.4
378.15 K, 1000 kPa	791.9
378.15 K, 2000 kPa	793.7
378.15 K, 3000 kPa	795.2
378.15 K, 3100 kPa	795.4
378.15 K, 5000 kPa	798
378.15 K, 10000 kPa	804.7
378.15 K, 15000 kPa	810.8
378.15 K, 20000 kPa	817.1
383.15 K, 100 kPa	785.2
383.15 K, 1000 kPa	786.7
383.15 K, 2000 kPa	788.3
383.15 K, 3000 kPa	789.9
383.15 K, 3100 kPa	790
383.15 K, 5000 kPa	792.9
383.15 K, 10000 kPa	800.1
383.15 K, 15000 kPa	806.7
383.15 K, 20000 kPa	812.8
388.15 K, 100 kPa	779.9
388.15 K, 1000 kPa	781.6
388.15 K, 2000 kPa	783.2
388.15 K, 3000 kPa	785.2
388.15 K, 3100 kPa	785.4
388.15 K, 5000 kPa	788.4
388.15 K, 10000 kPa	795.8
388.15 K, 15000 kPa	802.4
388.15 K, 20000 kPa	808.6
393.15 K, 100 kPa	775.2
393.15 K, 1000 kPa	776.4
393.15 K, 2000 kPa	778.1
393.15 K, 3000 kPa	779.5
393.15 K, 3100 kPa	779.7
393.15 K, 5000 kPa	782.8
393.15 K, 10000 kPa	790.6
393.15 K, 15000 kPa	797.7
393.15 K, 20000 kPa	804.2

Reference: the NIST ThermoML archive (doi:10.1021/je060339m)
